Columns and labels:
male albino Wistar rats [1] = test: Porsolt forced swimming test; type: in vivo, rat; details: compared to controls; single intragastric dose
Experimental: (§1) A study was conducted to evaluate the antidepressant effect of the claimed drug, formulated as a water solution (liquid dosage form) of the activated (potentized) energy-treated carrier, obtained by multiple consecutive dilution of the initial matrix solution in an aqueous-alcoholic diluent, combined with external mechanical impact—shaking of each resulting dilution, to a degree of 100^200, equivalent to a centesimal (C200) homeopathic dilution (wherein the energy treatment of the initial neutral carrier has been accomplished by exposing it to an electric current caused by a difference of potentials being applied to electrodes placed in the initial liquid carrier and which is proportional in amplitude to an amplified combined, summed up signal, formed by summing the resultant signals—biopotential differences of individual referential derivations recorded in five healthy donors using the internationally recognized 10-20 system, which involves 19 active recording electrodes placed in regular positions all over the scalp and one reference electrode located on the ear-lobe)—further referred to as AP drug, using standard experimental approaches—by examining animals' depression-like behavior (behavioral despair) in the Porsolt forced swimming test and Nomura's model employing forced-rotating-wheel swim test. […]

male albino Wistar rats [2] = test: Nomura forced-rotating-wheel swim test; type: in vivo, rat; details: compared to controls; single intragastric dose; 10 minutes
Experimental: as §1

## CN(C)CCC=C1c2ccccc2CCc2ccccc21 [reference compound, amitriptyline]
Male albino Wistar rats [1]
  Reduction of immobility time: 56%
Male albino Wistar rats [2]
  Increase of number of wheel rotations: 67%

Reference: US20170333560A1, “Pharmaceutical Composition That Includes A Neutral Carrier Treated With Energy And Related Methods Of Treatment” (priority 2016, published 2017)
